Experiment [1] relates to CT26.CL25 colon cancer tumor endothelial cells. Description: Colon CT26 ex vivo model of tumor angiogenesis. It is filed as cell-based, mouse. The conditions noted are these: for cytotoxicity at 40 µM / cytotoxicity at 10 µM / cytotoxicity at 20 µM: Mus musculus, Endothelial cell, 48 h, read-out: Cell death. The method, boiled down: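 Pieces of CT26 mouse tumor (~0.075 mm³) embedded in Matrigel and cultured in endothelial growth medium at 37 °C, 5% CO2 until endothelial outgrowth appeared (about 7 days), then treated. About 48 h after drug addition, live/dead staining with fluorescein diacetate and propidium iodide was imaged in green and red channels.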

Experiment [2] concerns LL/2 lung cancer tumor endothelial cells. Description: Lung LL2 ex vivo model of tumor angiogenesis. Type of experiment: cell-based, mouse. The conditions noted are these: for Cell death: drug treatment for two days, ratio of red area to total endothelial cell area; for 48 hrs (morphology observations): LL/2 tumor endothelial cells; for cytotoxicity at 20 µM / cytotoxicity at 40 µM: Mus musculus, Endothelial cell, 48 h, read-out: Cell death. The method, boiled down: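 LL2 mouse tumor fragments (~0.075 mm³) embedded in Matrigel and cultured in endothelial growth medium at 37 °C until endothelial outgrowth (~4 days) before treatment. Cell death assessed e.g. 48 h after drug by fluorescein diacetate (live)/propidium iodide (dead) staining and red/green fluorescence imaging.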

For `CCCCOc1ccc(S(=O)(=O)c2cnc3ccc(OC(F)(F)F)cc3c2NN2CCN(C)CC2)cc1` [Compound 92], the “48 hrs (morphology observations after 48 hours)” value in experiment [1] (Conc. 40 μm) is 0. Also, the cytotoxicity at 40 µM in experiment [1] was 0%. In addition, the Cell death in experiment [2] (20 μm) was found to be 10%.
Take `CCCCOc1ccc(S(=O)(=O)c2cnc3ccc(OC(F)(F)F)cc3c2-n2cncn2)cc1` [Compound 93]: the “48 hrs (morphology observations after 48 hours)” value in experiment [1] (Conc. 10 μm) is “*** (100% of endothelial cells vesicularize in cell shape)”. Further, the cytotoxicity at 10 µM in experiment [1] was 100%. In addition, in experiment [2] (20 μm), the “48 hrs (morphology observations)” value was “*** (more than 50% but less than 100% of endothelial cells vesicularize in cell shape)”. The cytotoxicity at 20 µM in experiment [2] is 100%.
As to `COc1ccc(S(=O)(=O)c2cnc3ccc([N+](=O)[O-])cc3c2NN2CCN(C)CC2)cc1` [Compound 94], in experiment [1] (Conc. 40 μm), the “48 hrs (morphology observations after 48 hours)” value is reported as 0. Also, the cytotoxicity at 40 µM in experiment [1] stood at 0%. Moreover, the Cell death in experiment [2] (40 μm) is 20%.
Turning to `CCc1ccc(S(=O)(=O)c2cnc3ccc(OC(F)(F)F)cc3c2NCCO)cc1` [Compound 95], the “48 hrs (morphology observations after 48 hours)” value in experiment [1] (Conc. 40 μm) came out at 0. Also, in experiment [1], the cytotoxicity at 40 µM turned out to be 0%. Also, the Cell death in experiment [2] (40 μm) came to 10%.
Regarding `COc1ccc(S(=O)(=O)c2cnc3cc(OC)c(OC)cc3c2-n2cncn2)cc1OC` [Compound 96], in experiment [1] (Conc. 10 μm), the “48 hrs (morphology observations after 48 hours)” value came out at 0. Also, the cytotoxicity at 10 µM in experiment [1] stood at 0%. The cytotoxicity at 20 µM in experiment [2] is 0%.
Consider `COc1ccc(S(=O)(=O)c2cnc3ccc([N+](=O)[O-])cc3c2-n2cncn2)cc1` [Compound 97], for which the “48 hrs (morphology observations after 48 hours)” value in experiment [1] (Conc. 10 μm) is listed as “*** (100% of endothelial cells vesicularize in cell shape)”. Further, the cytotoxicity at 10 µM in experiment [1] stood at 100%. The Cell death in experiment [2] (20 μm) was 50%.
Taken in the same sequence, the figures for `COc1ccc(S(=O)(=O)c2cnc3ccc(CC#N)cc3c2-n2cncn2)cc1` [Compound 98] were “*** (100% of endothelial cells vesicularize in cell shape)”, 50% and 10%.
As to `COc1ccc(S(=O)(=O)c2cnc3ccc(CC#N)cc3c2NN2CCN(C)CC2)cc1` [Compound 99], in experiment [1] (Conc. 40 μm), the “48 hrs (morphology observations after 48 hours)” value came out at 0. Further, the cytotoxicity at 40 µM in experiment [1] was found to be 0%. The Cell death in experiment [2] (40 μm) was 10%.
Consider `CCc1ccc(S(=O)(=O)c2cnc3ccc(OC(F)(F)F)cc3c2N2CCCN(CCN(CC)CC)CC2)cc1` [Compound 100], for which the “48 hrs (morphology observations after 48 hours)” value in experiment [1] (Conc. 40 μm) is “**** (100% of endothelial cells vesicularize in cell shape and look flattened in morphology (indicating disintegration of the cell body))”. The cytotoxicity at 40 µM in experiment [1] and in experiment [2] was 100% each time. For the same compound, the “48 hrs (morphology observations)” value in experiment [2] (40 μm) was “**** (100% of endothelial cells vesicularize in cell shape and look flattened in morphology (indicating disintegration of the cell body))”.
As for `CCc1ccc(S(=O)(=O)c2cnc3ccc(OC(F)(F)F)cc3c2N2CCC(OCCN(CC)CC)CC2)cc1` [Compound 101], the “48 hrs (morphology observations after 48 hours)” value in experiment [1] (Conc. 20 μm) is recorded as “* (50% or less of cells vesicularize in cell shape)”. In addition, the cytotoxicity at 20 µM in experiment [1] amounted to 50%; in experiment [2], 100%. Also, in experiment [2] (20 μm), the “48 hrs (morphology observations)” value is “*** (more than 50% but less than 100% of endothelial cells vesicularize in cell shape)”.
Turning to `CCc1ccc(S(=O)(=O)c2cnc3ccc(OC(F)(F)F)cc3c2N2CCC(N3CCC(O)CC3)CC2)cc1` [Compound 102], the “48 hrs (morphology observations after 48 hours)” value in experiment [1] (Conc. 40 μm) is 0. Besides, the cytotoxicity at 40 µM in experiment [1] turned out to be 5%. For the same compound, in experiment [2] (20 μm), the “48 hrs (morphology observations)” value came out at 0. Moreover, the cytotoxicity at 20 µM in experiment [2] is 20%.
With `CCc1ccc(S(=O)(=O)c2cnc3ccc(OC(F)(F)F)cc3c2-n2ccnn2)cc1` [Compound 110], the “48 hrs (morphology observations after 48 hours)” value in experiment [1] (Conc. 40 μm) is recorded as “** (more than 50% but less than 100% of endothelial cells vesicularize in cell shape)”. Besides, in experiment [1], the cytotoxicity at 40 µM worked out at 10%. Moreover, in experiment [2] (20 μm), the “48 hrs (morphology observations)” value was “*** (more than 50% but less than 100% of endothelial cells vesicularize in cell shape)” and the Cell death is on record as 95%.
For `CCc1ccc(S(=O)(=O)c2cnc3ccc(OC(F)(F)F)cc3c2-n2nnc3ccccc32)cc1` [Compound 112], the “48 hrs (morphology observations after 48 hours)” value in experiment [1] (Conc. 40 μm) is listed as “** (more than 50% but less than 100% of endothelial cells vesicularize in cell shape)”. For the same compound, the cytotoxicity at 40 µM in experiment [1] was found to be 10%. In experiment [2] (20 μm), the “48 hrs (morphology observations)” value was “*** (more than 50% but less than 100% of endothelial cells vesicularize in cell shape)” and the Cell death worked out at 70%.
Turning to `CCCCOc1ccc2ncc(S(=O)(=O)c3ccc(OC)c(OC)c3)c(N3CCC(N4CCCCC4)CC3)c2c1` [Compound 116], the “48 hrs (morphology observations after 48 hours)” value in experiment [1] (Conc. 20 μm) is “* (50% or less of cells vesicularize in cell shape)”. For the same compound, the cytotoxicity at 20 µM in experiment [1] was determined as 50%. For the same compound, in experiment [2] (20 μm), the “48 hrs (morphology observations)” value is listed as “*** (more than 50% but less than 100% of endothelial cells vesicularize in cell shape)” and the Cell death turned out to be 100%.
Turning to `CCc1ccc(S(=O)(=O)c2cnc3ccc(OC(F)(F)F)cc3c2-n2cnc(C)c2)cc1` [Compound 117], the “48 hrs (morphology observations after 48 hours)” value in experiment [1] (Conc. 20 μm) is listed as “*** (100% of endothelial cells vesicularize in cell shape)”. Also, the cytotoxicity at 20 µM in experiment [1] and in experiment [2] was 100% throughout. Besides, the “48 hrs (morphology observations)” value in experiment [2] (20 μm) is reported as “*** (more than 50% but less than 100% of endothelial cells vesicularize in cell shape)”.
For the compound `CCc1ccc(S(=O)(=O)c2cnc3ccc(OC(F)(F)F)cc3c2-n2ccnc2)cc1` [Compound 118], the “48 hrs (morphology observations after 48 hours)” value in experiment [1] (Conc. 20 μm) was “*** (100% of endothelial cells vesicularize in cell shape)”. Besides, the cytotoxicity at 20 µM in experiment [1] and in experiment [2] was 100% throughout. The “48 hrs (morphology observations)” value in experiment [2] (20 μm) was “*** (more than 50% but less than 100% of endothelial cells vesicularize in cell shape)”.
As to `CCCCOc1ccc(S(=O)(=O)c2cnc3ccc(OC(F)(F)F)cc3c2N2CCC(N3CCCCC3)CC2)cc1` [Compound 119], in experiment [1] (Conc. 20 μm), the “48 hrs (morphology observations after 48 hours)” value was 0. Further, the cytotoxicity at 20 µM in experiment [1] worked out at 50%. Also, in experiment [2] (20 μm), the “48 hrs (morphology observations)” value is given as “*** (more than 50% but less than 100% of endothelial cells vesicularize in cell shape)” and the Cell death is on record as 100%.
With `COc1ccc(S(=O)(=O)c2cnc3ccc(SC)cc3c2N2CCC(N3CCCCC3)CC2)cc1OC` [Compound 121], the “48 hrs (morphology observations after 48 hours)” value in experiment [1] (Conc. 40 μm) is given as “*** (100% of endothelial cells vesicularize in cell shape)”. Besides, the cytotoxicity at 40 µM in experiment [1] was 40%. In addition, the Cell death in experiment [2] (40 μm) is reported as 50%.
Regarding `CCCCOc1ccc(S(=O)(=O)c2cnc3ccc(OC(F)(F)F)cc3c2N2CCCN(C)CC2)cc1` [Compound 151], the “48 hrs (morphology observations after 48 hours)” value in experiment [1] (Conc. 40 μm) is “**** (100% of endothelial cells vesicularize in cell shape and look flattened in morphology (indicating disintegration of the cell body))”. The cytotoxicity at 40 µM in experiment [1] and in experiment [2] was 100% throughout. Further, the “48 hrs (morphology observations)” value in experiment [2] (40 μm) was “**** (100% of endothelial cells vesicularize in cell shape and look flattened in morphology (indicating disintegration of the cell body))”.
With `CCCCOc1ccc(S(=O)(=O)c2cnc3ccc(OC(F)(F)F)cc3c2N2CCC(N3CCC(O)CC3)CC2)cc1` [Compound 152], the “48 hrs (morphology observations after 48 hours)” value in experiment [1] (Conc. 40 μm) was “** (more than 50% but less than 100% of endothelial cells vesicularize in cell shape)”. Also, in experiment [1], the cytotoxicity at 40 µM stood at 30%. For the same compound, in experiment [2] (20 μm), the “48 hrs (morphology observations)” value is given as “* (50% or less of cells vesicularize in cell shape)” and the Cell death was 20%.
In the case of `COc1ccc(S(=O)(=O)c2cnc3ccc(SC)cc3c2N2CCCN(C)CC2)cc1OC` [Compound 154], the “48 hrs (morphology observations after 48 hours)” value in experiment [1] (Conc. 40 μm) was “* (50% or less of cells vesicularize in cell shape)”. Moreover, the cytotoxicity at 40 µM in experiment [1] and in experiment [2] was 30% each time. Also, in experiment [2] (40 μm), the “48 hrs (morphology observations)” value is “* (50% or less of cells vesicularize in cell shape)”.
In the case of `CCCCN(CCCC)c1c(S(=O)(=O)c2ccc(OC)cc2)cnc2ccc(C(=O)OCC)cc12` [Compound 155], the “48 hrs (morphology observations after 48 hours)” value in experiment [1] (Conc. 40 μm) is recorded as “*** (100% of endothelial cells vesicularize in cell shape)”. The cytotoxicity at 40 µM in experiment [1] worked out at 20%; in experiment [2], 80%. The “48 hrs (morphology observations)” value in experiment [2] (40 μm) is “*** (more than 50% but less than 100% of endothelial cells vesicularize in cell shape)”.
With `CCOC(=O)c1ccc2ncc(S(=O)(=O)c3ccc(OC)cc3)c(N(CCO)CCO)c2c1` [Compound 156], the “48 hrs (morphology observations after 48 hours)” value in experiment [1] (Conc. 40 μm) is listed as 0. In addition, the cytotoxicity at 40 µM in experiment [1] was found to be 0%; in experiment [2], 30%.
Turning to `CCCCOc1ccc(S(=O)(=O)c2cnc3ccc(C(=O)OCC)cc3c2N2CCC(N3CCCCC3)CC2)cc1` [Compound 157], in experiment [1] (Conc. 40 μm), the “48 hrs (morphology observations after 48 hours)” value was “**** (100% of endothelial cells vesicularize in cell shape and look flattened in morphology (indicating disintegration of the cell body))”. Also, the cytotoxicity at 40 µM in experiment [1] stood at 60%. In experiment [2] (40 μm), the “48 hrs (morphology observations)” value is “*** (more than 50% but less than 100% of endothelial cells vesicularize in cell shape)” and the Cell death is reported as 100%.
As for `CCCCOc1ccc(S(=O)(=O)c2cnc3ccc(C(=O)OCC)cc3c2N2CCCN(C)CC2)cc1` [Compound 158], the “48 hrs (morphology observations after 48 hours)” value in experiment [1] (Conc. 40 μm) was “**** (100% of endothelial cells vesicularize in cell shape and look flattened in morphology (indicating disintegration of the cell body))”. Besides, the cytotoxicity at 40 µM in experiment [1] and in experiment [2] was 100% throughout. Also, the “48 hrs (morphology observations)” value in experiment [2] (40 μm) is “**** (100% of endothelial cells vesicularize in cell shape and look flattened in morphology (indicating disintegration of the cell body))”.

The record behind these values is US20250230226A1, “PLXDC1/PLXDC2 ACTIVATORS AND THEIR USE IN THE TREATMENT OF BLOOD VESSEL DISORDERS” (THE REGENTS OF THE UNIVERSITY OF CALIFORNIA, priority 2019, published 2025).
